Laboratory results as given in patent US5374601A, “Thermal transfer sheet” (Dai Nippon Printing Co., Ltd., priority 1991, dated 1994).

Tested on: Salmonella TA1538 and TA98
Test: Ames test (preincubation method, metabolically activated, +x9mix)
Settings: 0 to 5 mg; for Increase (times): maximum increase in the colony of the sample as compared with the solvent control: acetone as solvent control; for Toxicity (mutagenicity): judged against solvent control
Protocol: Ames test was conducted as an identical amest test with respect to representative examples of the intermediate of the present invention and control dyes having the same structure as that of the intermediate of the present invention, except that the ring was a pyridine ring instead of the phenyl ring.
The ames test was conducted in such a state that Salmonella TA1538 and TA98 were metabolically activated by a preincubation method (+x9mix). The dye was used in contentrations in five grades in the range of from 0 to 5 mg. Acetone was used as the solvent control. The toxicity was judged based on the maximum increase in the colony of the sample as compared with the solvent control. Specifically, when the increase in the reversion colony was twice or more as compared with that in the case of the control, the mutagenicity was judged as positive, while when the increase in the reversion colony was less than twice as compared with that in the case of the control, the mutagenicity was judged as negative.

SMILES | Increase (times): maximum increase in the colony of the sample as compared with the solvent control [times] | Toxicity (mutagenicity)
CCN(CC)c1ccc(N=Nc2cn(-c3ccccc3)nc2C)cn1 | 1.5 | neg- ative
CCN(CC)c1ccc(N=C2C=C(NC(C)=O)C(=O)C(Cl)=C2C)cn1 | 1.5 | neg- ative
CCN(CC)c1ccc(N=Nc2cn(-c3ccccc3)nc2C)cc1 | 2.2 | pos- itive
CCN(CC)c1ccc(N=C2C=C(NC(C)=O)C(=O)C(Cl)=C2C)cc1 | 1.7 | neg- ative
